The values that follow come from patent publication US7517658B2, “Methods for preparing compositions using a SNORF33 receptor” (H. Lundbeck A/S, priority 1999, dated 2009).

“And” between values parts separate entries of the source, which are not always exact repeats. Equal entries are not always repeated.

For experiment [1], the target named is T1, mouse SNORF33 (Mus musculus, UniProt Q923Y8).
T1 construct: expressed in transfected cells; host or cells: COS-7 (membranes)
Description: [3H]-TYR binding (saturation and displacement) to mouse SNORF33 COS-7 membranes. The settings on record: mouse SNORF33, displacement of [3H]TYR; read-out: Ki (individual determinations). On the procedure: [^3H]-TYR and [^3H]-T binding assays were performed essentially as described by Mallard et al. (1992), with minor modifications. Radioligand binding assays were performed by diluting membranes prepared from cells expressing the receptor (with co-expression of the rat G-protein alpha S subunit for human SNORF33) in 25 mM Gly-Gly buffer (Sigma, pH=7.4 @ 0° C.) containing 5 mM ascorbate and 10 μM pargyline (final protein concentration in assay=100-300 μg/ml). Membranes were then incubated with either [^3H]-TYR (American Radiochemicals, specific activity 60 mCi/μmole) or [^3H]-T (Amersham, specific activity 98 mCi/μmole) in the presence or absence of competing ligands on ice for 30 min in a total volume of 250 μl in 96 well microtiter plates. The bound ligand was separated from free by filtration through GF/B filters presoaked in 0.5% polyethyleneimine (PEI), using Tomtec (Wallac) or Brandel Cell Harvester vacuum filtration device. After addition of Ready Safe (Beckman) scintillation fluid, bound radioactivity was quantitated using a Trilux (Wallac) scintillation counter (approximately 20% counting efficiency of bound counts). Data was fit to non-linear curves using GraphPad Prism.
In this manner, agonist or antagonist compounds that bind to the receptor may be identified as they inhibit the binding of the labeled ligand to the membrane protein of cells expressing the said receptor. Non-specific binding was defined as the amount of radioactivity remaining after incubation of membrane protein in the presence of 10 μM of the unlabeled amine corresponding to the radioligand used. In equilibrium saturation binding assays, membrane preparations or intact cells transfected with the receptor are incubated in the presence of increasing concentrations of the labeled compound to determine the binding affinity of the labeled ligand. The binding affinities of unlabeled compounds may be determined in equilibrium competition binding assays, using a fixed concentration of labeled compound in the presence of varying concentrations of the displacing ligands.

The target of experiment [2] is T1, mouse SNORF33. Description: cAMP assay at mouse SNORF33. The class given is cell-based. Here is the method: (§1) The receptor-mediated stimulation or inhibition of cyclic AMP (cAMP) formation may be assayed in cells expressing the mammalian receptors. Cells are plated in 96-well plates or other vessels and preincubated in a buffer such as HEPES buffered saline (NaCl (150 mM), CaCl2 (1 mM), KCl (5 mM), glucose (10 mM)) supplemented with a phosphodiesterase inhibitor such as 5 mM theophylline, with or without protease inhibitor cocktail (For example, a typical inhibitor cocktail contains 2 μg/ml aprotinin, […] leupeptin, and 10 μg/ml phosphoramidon.) for 20 min at 37° C., in 5% CO2. Test compounds are added with or without […] forskolin and incubated for an additional 10 min at 37° C. The medium is then aspirated and the reaction stopped by the addition of 100 mM HCl or other methods. The plates are stored at 4° C. for 15 min, and the cAMP content in the stopping solution is measured by radioimmunoassay. Radioactivity may be quantified using a gamma counter equipped with data reduction software. Specific modifications may be performed to optimize the assay for the receptor or to alter the detection method of cAMP.
COS-7 cells were transiently transfected with rSNORF33 gene using the calcium phosphate method and plated in 96-well plates. 48 hours after transfection, cells were washed twice with Dulbecco's phosphate buffered saline (PBS) supplemented with 10 mM HEPES, 10 mM glucose, 5 mM theophylline and 10 μM pargyline and were incubated in the same buffer for 20 min at 37° C., in […] 5% CO2. Test compounds were added and cells were incubated for an additional 10 min at 37° C. The medium was then aspirated and the reaction stopped by the addition of 100 mM HCl. The plates were stored at −20° C. for 2-5 days. For cAMP measurement, plates were thawed and the cAMP content in each well was measured by radioimmunoassay cAMP Scintillation Proximity Assay (Amersham Pharmacia Biotech). Radioactivity was quantified using microbeta Trilux counter (Wallac).
In general terms: Cyclic AMP is a second messenger, typically raised through Gs and lowered through Gi signalling.

Experiment [3] concerns the target cloned 5-HT receptors. Conditions: read-out: Ki values at several cloned 5-HT receptors; cited from earlier work.
Experiment [4] concerns the target T2, hSNORF33 (Homo sapiens, UniProt Q96RJ0).
T2 sequence (Q96RJ0 1-339): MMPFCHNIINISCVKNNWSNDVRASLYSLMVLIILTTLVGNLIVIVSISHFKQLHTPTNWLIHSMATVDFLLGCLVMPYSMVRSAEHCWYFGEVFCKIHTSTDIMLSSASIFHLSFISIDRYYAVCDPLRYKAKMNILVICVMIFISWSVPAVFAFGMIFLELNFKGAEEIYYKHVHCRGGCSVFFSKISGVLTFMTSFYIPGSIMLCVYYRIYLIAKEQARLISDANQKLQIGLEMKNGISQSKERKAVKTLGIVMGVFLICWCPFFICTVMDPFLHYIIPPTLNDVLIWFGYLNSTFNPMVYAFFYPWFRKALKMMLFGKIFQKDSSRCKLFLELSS
Description: Electrophysiological response of Xenopus oocytes expressing hSNORF33 and CFTR. The class given is cell-based. More on the design: expressed in transfected cells; host or cells: Xenopus laevis oocytes (mRNA injection, co-expressed CFTR). The settings on record: 100 μM tyramine; dependent on CFTR co-expression. On the procedure:
Unless otherwise specified, oocytes were voltage clamped at a holding potential of −80 mV. During recordings, oocytes were bathed in continuously flowing (1-3 ml/min) medium containing 96 mM NaCl, 2 mM KCl, 1.8 mM CaCl2, 1 mM MgCl2, and 5 mM HEPES, pH 7.5 (ND96). […] Experiments were carried out at room temperature.

For experiment [5], the target named is T3, rat SNORF33 (Rattus norvegicus, UniProt Q923Y9).
T3 construct: expressed in transfected cells
Description: cAMP response in stable rat SNORF33/HEK293 cells. It counts as cell-based. The settings on record: data not shown. Here is the method: as §1

T1 sequence (Q923Y8 whole entry): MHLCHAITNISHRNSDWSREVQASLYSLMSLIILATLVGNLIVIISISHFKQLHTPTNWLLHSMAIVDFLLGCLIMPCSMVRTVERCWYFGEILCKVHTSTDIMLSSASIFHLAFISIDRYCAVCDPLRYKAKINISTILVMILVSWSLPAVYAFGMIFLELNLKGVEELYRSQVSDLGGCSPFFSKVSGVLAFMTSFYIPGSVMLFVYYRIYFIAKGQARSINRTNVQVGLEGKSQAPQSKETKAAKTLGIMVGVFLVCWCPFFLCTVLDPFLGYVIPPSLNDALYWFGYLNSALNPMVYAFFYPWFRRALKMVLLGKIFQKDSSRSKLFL
T3 sequence (Q923Y9 whole entry): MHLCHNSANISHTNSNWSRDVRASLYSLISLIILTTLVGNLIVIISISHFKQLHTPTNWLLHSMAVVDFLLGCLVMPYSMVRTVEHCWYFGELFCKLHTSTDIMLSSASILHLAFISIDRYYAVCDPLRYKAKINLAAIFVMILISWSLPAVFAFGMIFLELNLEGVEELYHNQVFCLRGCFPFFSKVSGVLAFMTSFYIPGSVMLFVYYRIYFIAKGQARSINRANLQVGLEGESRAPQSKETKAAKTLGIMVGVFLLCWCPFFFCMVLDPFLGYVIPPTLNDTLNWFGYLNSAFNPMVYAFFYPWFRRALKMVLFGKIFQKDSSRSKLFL

The Ki is the equilibrium dissociation constant of an inhibitor or competing ligand from its target. For `NCCc1c[nH]c2ccccc12` [Tryptamine (T), Tryptamine], the results for the Ki in experiment [1] and in experiment [3] were 140 nM and 1 to 100 nM, respectively. The “Agonism in the cAMP assay” value in experiment [2] is given as “full agonists”.

With `NCCc1ccc(O)cc1` [Tyramine (TYR), Tyramine], in experiment [4], the “Stimulation of hSNORF33 currents” value is “strongly stimulated”. Moreover, the Ki in experiment [1] was 19 nM and 20 nM. For the same molecule, the “Agonism in the cAMP assay” value in experiment [2] was “full agonists”. The “Increase in cAMP” value in experiment [5] is roughly 4 fold.
